Test results reported in patent publication US20190029974A1, “METHODS FOR TREATING SKIN DISORDERS AND CONDITIONS UTILIZING HAPTENS” (RXi Pharmaceuticals Corporation, priority 2015, published 2019).

Legend:
[1] = Solubility of DPCP in solvents for gel and ointment formulations; format: physicochemical
Protocol: (§1) The compatibility and solubility of DPCP was determined in both isopropyl myristate (IPM) as well as Polysorbate 80 (PS80). […] Next, the stability of DPCP in these solvents was determined. A solution of 0.4% DPCP in isopropyl myristate and a solution of 0.4% DPCP in Polysorbate 80 was placed at 50° C. for two weeks. The stability of DPCP in these solvents was determined using reverse phase HPLC on a C18 column.

[2] = Stability of 0.4% DPCP solutions in solvents at 50° C., reverse phase HPLC on a C18 column; format: physicochemical
Protocol: as §1
For the development of a gel, the stability of DPCP was determined in both Ethanol (ETOH) and Isopropanol (IPA) was determined (0.4% DPCP solutions in each solvent was placed at 50° C. for two weeks; FIG. 3. All solutions contained 0.1% BHT). […] However, DPCP was stable in IPA. The stability of DPCP in the above solvents was determined using reverse phase HPLC on a C18 column.

solubility of DPCP in PS80 ([1]; Polysorbate 80 (PS80)): highly soluble
solubility of DPCP in IPM ([1]; isopropyl myristate (IPM)): about 1.1 % w/w
stability of DPCP in PS80 ([2]; 0.4% DPCP in Polysorbate 80, 50° C., two weeks): some degradation
stability of DPCP in ETOH ([2]; 0.4% DPCP in ethanol, 0.1% BHT, in the presence of citric acid, 50° C., two weeks): Some degradation
stability of DPCP in IPA ([2]; 0.4% DPCP in isopropanol, 0.1% BHT, 50° C., two weeks): stable
stability of DPCP in IPM ([2]; 0.4% DPCP in isopropyl myristate, 50° C., two weeks): stable
effect of BHT on degradation of DPCP in PS80 ([2]; PS80 with butylated hydroxytoloune (BHT)): reduce the amount of degradation
SMILES: O=c1c(-c2ccccc2)c1-c1ccccc1 [DPCP, Diphenylcyclopropenone]
